Article PMC7000700, “RyR1-targeted drug discovery pipeline integrating FRET-based high-throughput screening and human myofiber dynamic Ca^2+ assays” (Scientific Reports, 2020)

Biological target: RyR2 (Sus scrofa, UniProt A0A5G2R1W3)
Assay: F-FKBP binding to RyR2 by co-sedimentation with cardiac SR membranes
Design: using co-sedimentation with pig skeletal and cardiac SR membranes; from tissue; host or cells: pig cardiac muscle (crude SR membranes); species or system pig
Details: RyR2, 10 μM Hit, 30 nM Ca2+, 5 mM GSSG or GSH
Method: The Hit-induced effect on FRET between D-FKBP and A-CaM most likely results from one or the combination of factors, including a shift in CaM and/or FKBP12.6 binding, and/or structure of the RyR complex that shifts the D-A distance. Under the same assay conditions as in the primary screen, we assessed the effect of 10 μM Hit on fluorescent FKBP12.6 (F-FKBP) binding to RyRs, using co-sedimentation with pig skeletal and cardiac SR membranes.
Supplementary Fig. 3 Effect of HTS Hits on F-FKBP binding to a) RyR1 in skeletal HSR membranes, and b) RyR2
in cardiac CSR membranes at 30 nM Ca2+ in the presence of 5 mM GSSG or GSH. Results are represented as individual
data points and means ± SEM, n = 4-5. *P < 0.05 by 2-sided Student’s unpaired t-test. […]

Chain of RyR2 (A0A5G2R1W3 20-4900): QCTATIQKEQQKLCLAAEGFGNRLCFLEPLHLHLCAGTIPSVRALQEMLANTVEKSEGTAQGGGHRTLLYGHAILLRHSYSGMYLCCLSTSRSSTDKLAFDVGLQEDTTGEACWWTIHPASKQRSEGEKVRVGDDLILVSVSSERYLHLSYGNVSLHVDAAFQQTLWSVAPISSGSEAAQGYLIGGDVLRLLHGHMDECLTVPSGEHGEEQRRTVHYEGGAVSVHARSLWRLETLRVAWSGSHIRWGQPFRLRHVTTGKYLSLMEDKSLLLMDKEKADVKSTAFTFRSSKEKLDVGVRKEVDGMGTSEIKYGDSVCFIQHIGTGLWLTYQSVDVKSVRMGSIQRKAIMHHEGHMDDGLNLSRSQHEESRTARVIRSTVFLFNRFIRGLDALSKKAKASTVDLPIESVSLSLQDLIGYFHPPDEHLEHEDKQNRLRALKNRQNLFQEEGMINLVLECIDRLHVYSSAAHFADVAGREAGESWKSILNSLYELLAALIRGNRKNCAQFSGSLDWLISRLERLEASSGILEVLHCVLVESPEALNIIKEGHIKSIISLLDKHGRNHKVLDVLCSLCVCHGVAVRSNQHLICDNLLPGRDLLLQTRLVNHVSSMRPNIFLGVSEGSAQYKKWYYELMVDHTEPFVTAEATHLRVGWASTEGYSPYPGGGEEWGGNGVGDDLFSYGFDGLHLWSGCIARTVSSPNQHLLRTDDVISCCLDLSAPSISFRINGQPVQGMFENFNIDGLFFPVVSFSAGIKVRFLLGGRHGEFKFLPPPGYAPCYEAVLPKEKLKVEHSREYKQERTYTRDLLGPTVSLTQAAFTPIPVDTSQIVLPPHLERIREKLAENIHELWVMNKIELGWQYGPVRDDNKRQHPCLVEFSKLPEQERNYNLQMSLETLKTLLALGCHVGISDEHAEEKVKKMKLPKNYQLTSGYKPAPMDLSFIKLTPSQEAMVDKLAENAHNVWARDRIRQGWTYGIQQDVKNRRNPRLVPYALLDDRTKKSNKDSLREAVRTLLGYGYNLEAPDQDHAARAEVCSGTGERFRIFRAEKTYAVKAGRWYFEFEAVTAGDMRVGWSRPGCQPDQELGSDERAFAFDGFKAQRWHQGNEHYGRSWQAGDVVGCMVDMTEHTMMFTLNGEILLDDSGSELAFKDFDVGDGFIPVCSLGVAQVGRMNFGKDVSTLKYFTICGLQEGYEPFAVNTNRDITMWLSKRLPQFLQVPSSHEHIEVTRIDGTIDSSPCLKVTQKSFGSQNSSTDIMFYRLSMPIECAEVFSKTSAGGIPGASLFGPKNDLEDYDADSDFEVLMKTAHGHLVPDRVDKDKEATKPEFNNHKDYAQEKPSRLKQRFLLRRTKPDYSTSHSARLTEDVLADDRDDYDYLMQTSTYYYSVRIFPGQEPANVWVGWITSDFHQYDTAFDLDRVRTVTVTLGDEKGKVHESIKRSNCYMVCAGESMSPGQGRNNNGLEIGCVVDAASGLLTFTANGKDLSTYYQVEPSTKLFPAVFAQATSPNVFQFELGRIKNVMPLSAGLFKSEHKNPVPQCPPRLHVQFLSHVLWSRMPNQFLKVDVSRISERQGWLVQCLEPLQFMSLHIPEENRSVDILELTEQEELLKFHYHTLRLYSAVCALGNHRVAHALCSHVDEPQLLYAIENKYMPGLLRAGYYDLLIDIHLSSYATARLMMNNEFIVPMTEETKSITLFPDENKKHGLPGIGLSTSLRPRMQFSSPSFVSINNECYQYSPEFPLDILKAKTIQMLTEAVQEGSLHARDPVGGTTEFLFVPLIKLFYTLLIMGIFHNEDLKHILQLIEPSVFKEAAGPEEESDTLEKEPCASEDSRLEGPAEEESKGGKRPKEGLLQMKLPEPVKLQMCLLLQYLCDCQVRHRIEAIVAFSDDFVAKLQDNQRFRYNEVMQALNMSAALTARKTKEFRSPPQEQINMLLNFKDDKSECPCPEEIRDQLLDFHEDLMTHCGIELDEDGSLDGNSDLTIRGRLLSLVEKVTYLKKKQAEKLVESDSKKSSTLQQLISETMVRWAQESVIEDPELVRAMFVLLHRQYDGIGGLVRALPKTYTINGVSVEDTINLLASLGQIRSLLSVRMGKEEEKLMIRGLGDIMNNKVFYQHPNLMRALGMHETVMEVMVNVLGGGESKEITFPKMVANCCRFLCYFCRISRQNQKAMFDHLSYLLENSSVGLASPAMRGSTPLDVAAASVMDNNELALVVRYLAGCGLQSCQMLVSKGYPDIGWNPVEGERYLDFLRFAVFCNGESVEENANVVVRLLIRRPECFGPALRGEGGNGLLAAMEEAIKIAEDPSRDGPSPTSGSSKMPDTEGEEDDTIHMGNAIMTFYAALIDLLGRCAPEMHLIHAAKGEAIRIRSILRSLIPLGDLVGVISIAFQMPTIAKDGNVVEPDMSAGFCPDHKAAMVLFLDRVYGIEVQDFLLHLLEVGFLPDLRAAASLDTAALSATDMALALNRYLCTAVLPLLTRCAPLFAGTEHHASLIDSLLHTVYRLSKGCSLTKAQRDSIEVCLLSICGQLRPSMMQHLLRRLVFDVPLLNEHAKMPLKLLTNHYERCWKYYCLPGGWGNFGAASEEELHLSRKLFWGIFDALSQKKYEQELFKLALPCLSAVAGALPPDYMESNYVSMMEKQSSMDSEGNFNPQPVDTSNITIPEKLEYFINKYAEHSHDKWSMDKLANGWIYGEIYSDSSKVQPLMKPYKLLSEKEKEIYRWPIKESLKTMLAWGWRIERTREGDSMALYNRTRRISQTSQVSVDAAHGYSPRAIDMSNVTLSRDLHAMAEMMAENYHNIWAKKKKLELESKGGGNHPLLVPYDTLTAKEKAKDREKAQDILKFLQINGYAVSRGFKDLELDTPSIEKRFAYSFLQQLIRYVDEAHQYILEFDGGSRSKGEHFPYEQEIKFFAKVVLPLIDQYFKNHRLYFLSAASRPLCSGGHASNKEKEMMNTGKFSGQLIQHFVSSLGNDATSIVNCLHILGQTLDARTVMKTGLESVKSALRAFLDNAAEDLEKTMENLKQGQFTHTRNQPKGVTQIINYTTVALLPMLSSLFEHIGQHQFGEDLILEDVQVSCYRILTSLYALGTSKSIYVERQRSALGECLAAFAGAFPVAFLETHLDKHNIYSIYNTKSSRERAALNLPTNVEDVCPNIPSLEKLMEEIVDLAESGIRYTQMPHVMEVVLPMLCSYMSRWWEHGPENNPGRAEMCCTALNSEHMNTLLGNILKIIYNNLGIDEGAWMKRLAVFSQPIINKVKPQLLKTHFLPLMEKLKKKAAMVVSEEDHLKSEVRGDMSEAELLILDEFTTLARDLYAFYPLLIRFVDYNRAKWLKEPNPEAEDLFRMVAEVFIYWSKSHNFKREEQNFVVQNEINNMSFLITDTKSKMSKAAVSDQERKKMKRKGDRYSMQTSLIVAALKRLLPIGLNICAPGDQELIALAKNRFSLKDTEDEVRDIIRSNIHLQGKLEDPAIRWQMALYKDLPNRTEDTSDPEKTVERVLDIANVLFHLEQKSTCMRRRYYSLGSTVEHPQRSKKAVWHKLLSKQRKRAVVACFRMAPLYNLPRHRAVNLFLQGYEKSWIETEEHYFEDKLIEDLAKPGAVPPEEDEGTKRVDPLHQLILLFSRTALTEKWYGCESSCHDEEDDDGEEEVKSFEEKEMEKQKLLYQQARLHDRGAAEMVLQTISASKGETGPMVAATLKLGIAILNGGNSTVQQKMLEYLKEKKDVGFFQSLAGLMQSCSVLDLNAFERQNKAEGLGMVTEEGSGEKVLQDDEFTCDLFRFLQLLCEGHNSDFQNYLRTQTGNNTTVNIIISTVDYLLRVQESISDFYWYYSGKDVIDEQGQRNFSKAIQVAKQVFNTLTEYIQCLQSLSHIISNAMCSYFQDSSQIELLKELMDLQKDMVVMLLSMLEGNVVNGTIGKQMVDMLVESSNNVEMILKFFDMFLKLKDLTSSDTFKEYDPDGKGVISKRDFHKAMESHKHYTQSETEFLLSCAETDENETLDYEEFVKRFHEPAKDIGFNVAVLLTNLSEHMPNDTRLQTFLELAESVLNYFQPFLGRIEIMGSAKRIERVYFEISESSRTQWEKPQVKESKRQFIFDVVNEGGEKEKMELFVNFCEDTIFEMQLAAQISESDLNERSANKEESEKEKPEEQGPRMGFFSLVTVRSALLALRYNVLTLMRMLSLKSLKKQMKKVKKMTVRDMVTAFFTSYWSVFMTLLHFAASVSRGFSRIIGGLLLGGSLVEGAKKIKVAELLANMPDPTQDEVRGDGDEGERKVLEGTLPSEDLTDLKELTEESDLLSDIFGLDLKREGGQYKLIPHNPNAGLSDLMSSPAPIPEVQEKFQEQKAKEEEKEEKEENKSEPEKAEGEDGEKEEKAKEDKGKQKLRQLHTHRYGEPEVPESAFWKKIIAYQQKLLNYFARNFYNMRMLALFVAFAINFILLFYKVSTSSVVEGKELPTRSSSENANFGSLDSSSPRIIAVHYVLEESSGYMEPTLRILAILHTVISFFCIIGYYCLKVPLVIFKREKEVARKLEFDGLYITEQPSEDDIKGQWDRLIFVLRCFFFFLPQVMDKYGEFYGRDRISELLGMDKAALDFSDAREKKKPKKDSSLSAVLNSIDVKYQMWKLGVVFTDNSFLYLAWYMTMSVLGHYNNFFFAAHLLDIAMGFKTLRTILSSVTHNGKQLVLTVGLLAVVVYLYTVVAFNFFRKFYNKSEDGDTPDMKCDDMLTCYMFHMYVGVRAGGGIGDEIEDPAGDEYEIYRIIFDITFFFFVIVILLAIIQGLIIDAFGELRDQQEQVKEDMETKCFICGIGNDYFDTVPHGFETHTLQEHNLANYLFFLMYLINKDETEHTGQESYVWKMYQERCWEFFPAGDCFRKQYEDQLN

Decrease of F-FKBP binding: did not alter
Structure (SMILES): O=c1c(O)c(-c2cc(O)c(O)c(O)c2)oc2cc(O)cc(O)c12 [myricetin]
